Results from ChEMBL document CHEMBL1201862, “PubChem BioAssay data set” (2004).
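48-hour exposure; five concentrations; linearly interpolated endpoints. GI50 = concentration required for 50% inhibition of growth.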 Activity calls are given as the source filed them. Rule as the data show it: active = GI50 up to about 1.1 µM and inactive = higher.

Columns and labels:
Experiment in all cases: growth of human tumour cells (NCI), 48 h
A498 = tested on: A498
COLO 205 = tested on: COLO 205
HCT-15 = tested on: HCT-15
HT-29 = tested on: HT-29
Hs-578T = tested on: Hs-578T
IGROV-1 = tested on: IGROV-1
MOLT-4 = tested on: MOLT-4
Malme-3M = tested on: Malme-3M
NCI-H460 = tested on: NCI-H460
OVCAR-3 = tested on: OVCAR-3
RXF 393 = tested on: RXF 393
SF-539 = tested on: SF-539
SK-MEL-28 = tested on: SK-MEL-28
SK-MEL-2 = tested on: SK-MEL-2
SK-MEL-5 = tested on: SK-MEL-5
SN12C = tested on: SN12C
SNB-75 = tested on: SNB-75
T47D = tested on: T47D
TK-10 = tested on: TK-10
UO-31 = tested on: UO-31

| SMILES | GI50 (A498) | GI50 (COLO 205) | GI50 (HCT-15) [µM] | GI50 (HT-29) | GI50 (Hs-578T) | GI50 (IGROV-1) | GI50 (MOLT-4) | GI50 (Malme-3M) | GI50 (NCI-H460) | GI50 (OVCAR-3) | GI50 (RXF 393) | GI50 (SF-539) | GI50 (SK-MEL-28) | GI50 (SK-MEL-2) | GI50 (SK-MEL-5) | GI50 (SN12C) | GI50 (SNB-75) | GI50 (T47D) | GI50 (TK-10) | GI50 (UO-31) |
| --- | --- | --- | --- | --- | --- | --- | --- | --- | --- | --- | --- | --- | --- | --- | --- | --- | --- | --- | --- | --- |
| Cc1c/c(=N\c2ccc3c(c2)c(N)cc(C)[n+]3C)nc(N)n1C | > 100 µM (inactive) | > 100 µM (inactive) | > 100 | > 100 µM (inactive) | > 100 µM (inactive) | > 100 µM (inactive) | > 100 µM (inactive) | > 100 µM (inactive) | > 100 µM (inactive) | > 100 µM (inactive) | > 100 µM (inactive) | > 100 µM (inactive) | > 100 µM (inactive) | > 100 µM (inactive) | > 100 µM (inactive) | 92.7 µM (inactive) | > 100 µM (inactive) | > 100 µM (inactive) | > 100 µM (inactive) | > 100 µM (inactive) |
| NCCCCCCn1c(-c2ccc(Br)cc2)cs/c1=N\c1ccccc1 | 17.9 µM (inactive) | 1.79 µM (inactive) | 7.74 | 5.9 µM (inactive) | 13.1 µM (inactive) | – | 3.83 µM (inactive) | 9.35 µM (inactive) | 13.1 µM (inactive) | 10.9 µM (inactive) | 10.9 µM (inactive) | 13.1 µM (inactive) | 12.7 µM (inactive) | 18.6 µM (inactive) | 10.1 µM (inactive) | 13.7 µM (inactive) | 11.9 µM (inactive) | 5.08 µM (inactive) | 13.6 µM (inactive) | 10.4 µM (inactive) |
| O=C(O)C(Cc1ccccc1-c1ccccc1)C(=O)O | > 100 µM (inactive) | > 100 µM (inactive) | > 100 | > 100 µM (inactive) | > 100 µM (inactive) | > 100 µM (inactive) | > 100 µM (inactive) | > 100 µM (inactive) | > 100 µM (inactive) | 97.1 µM (inactive) | > 100 µM (inactive) | > 100 µM (inactive) | > 100 µM (inactive) | > 100 µM (inactive) | > 100 µM (inactive) | > 100 µM (inactive) | > 100 µM (inactive) | > 100 µM (inactive) | > 100 µM (inactive) | > 100 µM (inactive) |
| COc1ccc(C(O)c2ccccn2)cc1 (stereo not drawn) | > 100 µM (inactive) | > 100 µM (inactive) | > 100 | > 100 µM (inactive) | > 100 µM (inactive) | > 100 µM (inactive) | > 100 µM (inactive) | > 100 µM (inactive) | > 100 µM (inactive) | > 100 µM (inactive) | > 100 µM (inactive) | > 100 µM (inactive) | > 100 µM (inactive) | > 100 µM (inactive) | > 100 µM (inactive) | > 100 µM (inactive) | > 100 µM (inactive) | > 100 µM (inactive) | > 100 µM (inactive) | – |
| N#CC1(C#N)C2CCCCC23OC(=N)C1(C#N)C(c1ccccc1)O3 (stereo not drawn) | 17.8 µM (inactive) | 13.4 µM (inactive) | 12.4 | 18.2 µM (inactive) | 0.302 µM (active) | 19 µM (inactive) | 25.1 µM (inactive) | 17 µM (inactive) | 19 µM (inactive) | 13.6 µM (inactive) | 31.8 µM (inactive) | 17.1 µM (inactive) | > 10 µM (inactive) | 20.2 µM (inactive) | 16.1 µM (inactive) | 13.1 µM (inactive) | 0.213 µM (active) | 17.5 µM (inactive) | 16.6 µM (inactive) | 34.8 µM (inactive) |
| C1CSC2=C(S1)SC1=C(S2)SC(=C2SC3=C(SC4=C(SCCS4)S3)S2)S1 | > 100 µM (inactive) | > 100 µM (inactive) | > 100 | > 100 µM (inactive) | > 100 µM (inactive) | > 100 µM (inactive) | > 100 µM (inactive) | > 100 µM (inactive) | > 100 µM (inactive) | > 100 µM (inactive) | > 100 µM (inactive) | > 100 µM (inactive) | > 100 µM (inactive) | 74.1 µM (inactive) | > 100 µM (inactive) | > 100 µM (inactive) | 37.7 µM (inactive) | > 100 µM (inactive) | > 100 µM (inactive) | > 100 µM (inactive) |
| Cc1nc(C(N)=S)sc1C(=O)CC(=O)C(=O)Nc1nc2ccccc2[nH]1 | > 100 µM (inactive) | – | > 100 | > 100 µM (inactive) | > 100 µM (inactive) | > 100 µM (inactive) | > 100 µM (inactive) | > 100 µM (inactive) | > 100 µM (inactive) | > 100 µM (inactive) | > 100 µM (inactive) | > 100 µM (inactive) | > 100 µM (inactive) | > 100 µM (inactive) | > 100 µM (inactive) | > 100 µM (inactive) | > 100 µM (inactive) | > 100 µM (inactive) | > 100 µM (inactive) | > 100 µM (inactive) |
| C1CCN2CC3CCCN4CCCC(C2C1)C34 (stereo not drawn) | > 100 µM (inactive) | > 100 µM (inactive) | > 100 | > 100 µM (inactive) | > 100 µM (inactive) | > 100 µM (inactive) | > 100 µM (inactive) | > 100 µM (inactive) | > 100 µM (inactive) | > 100 µM (inactive) | > 100 µM (inactive) | > 100 µM (inactive) | > 100 µM (inactive) | > 100 µM (inactive) | > 100 µM (inactive) | > 100 µM (inactive) | 50.1 µM (inactive) | > 100 µM (inactive) | > 100 µM (inactive) | – |
| COc1ccc2oc(S(=O)(=O)N3CC(CCl)c4ccc([N+](=O)[O-])cc43)cc2c1 (stereo not drawn) | 0.0746 µM (active) | 0.105 µM (active) | 0.0703 | 0.146 µM (active) | 0.0454 µM (active) | 0.0815 µM (active) | 0.223 µM (active) | 0.767 µM (active) | 0.102 µM (active) | 0.108 µM (active) | 0.0345 µM (active) | 0.0607 µM (active) | – | 0.12 µM (active) | 0.0752 µM (active) | 0.179 µM (active) | 0.0933 µM (active) | 20.2 µM (inactive) | 15.1 µM (inactive) | 0.783 µM (active) |
| c1ccc(CCCNc2nnnc3ccccc23)cc1 | > 100 µM (inactive) | 62.5 µM (inactive) | > 100 | > 100 µM (inactive) | 34.8 µM (inactive) | > 100 µM (inactive) | 35.6 µM (inactive) | 58.2 µM (inactive) | > 100 µM (inactive) | > 100 µM (inactive) | 43.4 µM (inactive) | 57 µM (inactive) | > 100 µM (inactive) | > 100 µM (inactive) | 32.4 µM (inactive) | > 100 µM (inactive) | > 100 µM (inactive) | 23.2 µM (inactive) | > 100 µM (inactive) | – |
| COC(=O)/C(=C\c1ccco1)P(=O)(OC)OC | 54.3 µM (inactive) | > 100 µM (inactive) | 75.5 | 25.9 µM (inactive) | 54.1 µM (inactive) | > 100 µM (inactive) | > 100 µM (inactive) | 16.4 µM (inactive) | 48.3 µM (inactive) | 26.9 µM (inactive) | 24.4 µM (inactive) | 32.5 µM (inactive) | 52.8 µM (inactive) | 30.9 µM (inactive) | 62.4 µM (inactive) | 39.9 µM (inactive) | 35.2 µM (inactive) | > 100 µM (inactive) | > 100 µM (inactive) | – |
